US20170240592A1, “GADD45BETA/MKK7 INHIBITOR FOR THE TREATMENT OF A RESISTANT HAEMATOLOGICAL MALIGNANCY” (IMPERIAL INNOVATIONS LIMITED, priority 2014, published 2017)

Columns and labels:
[1] = test system: medullary KMS-12 multiple myeloma xenografts; type: in vivo, NOD/SCID mice; conditions: 29 mg/kg/day intermittent infusion over 8 weeks; experimental end-point day 161
Method: Mice were housed in the animal facilities at Hammersmith. All experiments were conducted under PPL 70/6874, after approval by the Imperial College Ethical Review Process and the Home Office. For the plasmacytoma model, NOD/SCID mice (NOD.CB17-Prkdc^scid/IcrCrl; Charles River) were injected subcutaneously with 1.0×10^7 U266 or KMS-11 multiple myeloma cells, and then randomized into treatment groups and treated by infusion, as shown. Tumour volumes were measured as described in Mauro et al., 2011. For the orthotopic multiple myeloma model, mice of the same strain were sub-lethally irradiated and then injected intravenously with 1.0×10^7 KMS-12-BM multiple myeloma cells, as described in Rabin et al., 2007). […] Animals were monitored daily and euthanized on day 161 of treatment start or when they reached any of the end-points in the PPL. […]
For experiments in the medullary xenograft model, 6 to 8-week old male NOD/SCID mice (NOD.CB17-Prkdc^scid/IcrCrl; Charles River) were sub-lethally irradiated (3.50 Gy) and, then, injected intraperitoneally with purified anti-CD122 monoclonal antibody (200 μg/mouse), as above. […] Animals were monitored daily for weight loss and other clinical signs of medullary disease, such as hind limb paralysis and behavioural changes, and euthanized with CO2 on day 161 of treatment start or when the disease severity reached any of the end-points stated in the PPL. […]

[2] = test system: mouse LN cells and splenocytes; assay: trypan blue exclusion assay, survival of mouse LN cells and splenocytes; type: cell-based; conditions: DTP3 100 μM, PS-1145 20 μM, 144 hr
Method: (§1) Values express the percentage of live cells present in the treated cultures relative to the live cells present in the respective untreated cultures and denote means±SD ([WM]; n=3). UT, untreated. […] Values express the percentage of inhibition of Gadd45β binding to MKK7 relative to the binding measured in the absence of peptide. […] Co-immunoprecipitations (IP) were performed using an anti-FLAG antibody (a-FLAG); western blots (WB) were developed using an anti-HA or an anti-MKK7 antibody, as shown.
[…] Cell viability was measured by using trypan blue exclusion or [^3H]thymidine incorporation assays performed in the manner described above (Mauro et al., 2011; Griffiths and Sundaram, 2011; Arnold et al., 2008), as indicated.

[3] = test system: multiple myeloma cell lines; assay: [3H]thymidine incorporation assay, survival of multiple myeloma cell lines; type: cell-based, human; conditions: 6-day treatment; all lines tested apart from RPMI-8226 and KMM-1
Method: as §1
[^3H]Thymidine incorporation and trypan blue exclusion assays were performed using standard methods (Mauro et al., 2011). […] Apoptosis analyses were performed using PI staining as described in Mauro et al., 2011. Additional details are provided in the Supplemental Experimental Procedures.

[4] = mouse, in vivo, iv, 10 mg/kg
Method: In vitro pharmacokinetic assays were performed according to established, in-house protocols and included: plasma stability (human), thermodynamic solubility (PBS pH 7.4, at 37° C. for 14 days), microsomal stability (human), plasma protein binding (PPB; mouse and human), and distribution coefficient (Log D). In vivo pharmacokinetic analyses were also performed at Cyprotex according to established, in-house protocols. Briefly, the peptides were dissolved in PBS and administered by single intravenous injection to CD1 male mice at the dose of 10 mg/kg (25-30 g of total body weight; n=3 mice per time point per compound). Blood samples were collected in heparinized tubes at up to 7 time points after this injection (i.e. 0.08, 0.25, 0.5, 1, 2, 4 and 8 hr), and the plasma concentrations of the test peptide were determined at each time point by LC-MS/MS, using a five-point standard curve covering a peptide concentration range from 3 to 3,000 ng/mL. Standard curves were prepared using blank plasma matrices and treated in the same manner as the test samples. […] Values were calculated from the data of the peptide plasma concentration versus time curves using a non-compartmental model analysis, as described elsewhere (Groulx, 2006; Landaw and Di Stefano 3rd, 1982). The doses of z-DTP2 and DTP3 predicted to achieve the therapeutic plasma concentration of 1 μM at the steady state were calculated from the measured pharmacokinetic values using the following equation: k0=k1×Vd×Cp (where Vd is expressed in L/kg; Cp is the plasma concentration at the steady state expressed in mg/L; k0 is the zero order input expressed in mg/kg/hr; k1 is the first order elimination constant [0.693/t1/2]).

[5] = test system: diffuse large B-cell lymphoma (DLBCL) cell lines; assay: PI nuclear staining assay, apoptotic cells in DLBCL cell lines; type: cell-based, human; conditions: 10 μM, 6 days
Method: Current treatment of diffuse large B-cell lymphoma typically involves treatment with combination therapy, such as cyclophosphamide, doxorubicin, vincristine and prednisone (CHOP), or rituximab, cyclophosphamide, doxorubicin, vincristine and prednisone (R-CHOP). With those current treatments, many patients relapse and/or develop drug resistance at some point. The potential of the Gadd45β/MKK7 inhibitor DTP3 to operate in these settings was evaluated, by determining levels of apoptosis in diffuse large B-cell lymphoma cell lines known to be resistant to current therapies (HT, SU-DHL-8, U-2932, RC-K8 and RIVA, see for example Kaneko et al, Clinical Cancer Research, 2014, 20, p 1814-1820; Naylor et al, Cancer Research, 2011, Volume 71, p 2643-2653; Lyu et al, Cancer Research, 2013, Volume 73, Issue 8, Supplement 1), following treatment of those cells with DTP3. These cells have CARD11, A20 and/or MYD88 mutations and are also known to be resistant to agents such as Bruton's tyrosine kinase inhibitors, spleen tyrosine kinase inhibitors, PI3K inhibitors and/or protein kinase C inhibitors.
The percentages of apoptotic cells are depicted.
A comparison was made between the ability of DTP3 to kill various DLBCL cell lines by apoptosis in vitro. Cell lines HT, SU-DHL-8, U-2932 and RC-K8 which are known to be sensitive to DTP3; and insensitive cell lines RI-1, NU-DUL-1, TMD8, and HBL1 were used. Cell death was assessed using a standard propidium iodide (PI) nuclear staining assay followed by flow cytometry whereby the proportion of cells with a sub G1-DNA content was measured after cells had been exposed to DTP3 for 6 days at 10 μM. As controls, further populations of cells were left untreated (UT) or were treated with a scrambled D-tripeptide (SCR) for 6 days.
Apoptosis analyses were performed using propidium iodide (PI) nuclear labelling, as described previously (Riccardi and Nicoletti, 2006). Briefly, cells were seeded at a density of 2×10^5 cells/well into wells of either 24- or 48-well plates and cultured in the presence or absence of treatment, as shown. Cells were then fixed in 70% ice-cold ethanol for 16 hr, washed in PBS, and treated with ribonuclease A (50 μg/mL) for 30 min at room temperature. Samples were finally stained with PI (50 μg/mL) in 0.1% sodium citrate buffer for 2 to 4 hr at 4° C. in the dark, and data were acquired using a FACSCalibur automated system (Becton Dickinson) and analysed with FlowJo.

plasma stability (human) = type: in vitro ADME
Method: In vitro pharmacokinetic assays were performed according to established, in-house protocols and included: plasma stability (human), thermodynamic solubility (PBS pH 7.4, at 37° C. for 14 days), microsomal stability (human), plasma protein binding (PPB; mouse and human), and distribution coefficient (Log D). In vivo pharmacokinetic analyses were also performed at Cyprotex according to established, in-house protocols. Briefly, the peptides were dissolved in PBS and administered by single intravenous injection to CD1 male mice at the dose of 10 mg/kg (25-30 g of total body weight; n=3 mice per time point per compound). Blood samples were collected in heparinized tubes at up to 7 time points after this injection (i.e. 0.08, 0.25, 0.5, 1, 2, 4 and 8 hr), and the plasma concentrations of the test peptide were determined at each time point by LC-MS/MS, using a five-point standard curve covering a peptide concentration range from 3 to 3,000 ng/mL. Standard curves were prepared using blank plasma matrices and treated in the same manner as the test samples. […] Values were calculated from the data of the peptide plasma concentration versus time curves using a non-compartmental model analysis, as described elsewhere (Groulx, 2006; Landaw and Di Stefano 3rd, 1982). […]

Structure (SMILES): CC(=O)N[C@H](Cc1ccc(O)cc1)C(=O)N[C@H](CCCNC(=N)N)C(=O)N[C@H](Cc1ccccc1)C(N)=O [DTP3, Acetyl-Tyr-Arg-Phe-NH2]
- median OS [1]: > 161 days
- toxicity to normal cells compared with PS-1145 [2]: far lesser toxicity to normal cells than the IKKβ inhibitor PS-1145
- cytotoxic activity in multiple myeloma cell lines [3]: potent and selective capacity to kill multiple myeloma cells via apoptosis
- plasma clearance (CL) compared with z-DTP2 [4]: significantly lower
- terminal half-life (t1/2) compared with z-DTP2 [4]: somewhat shorter
- volume of distribution (Vd) compared with z-DTP2 [4]: much lower
- apoptosis in DLBCL cell lines resistant to conventional DLBCL treatments ([5]; HT, SU-DHL-8, U-2932, RC-K8): effective in causing apoptosis
- apoptosis in sensitive DLBCL cell lines ([5]; HT, SU-DHL-8, U-2932, RC-K8): substantial increases in apoptosis
- apoptosis in insensitive DLBCL cell lines ([5]; RI-1, NU-DUL-1, TMD8, HBL1): no increase in apoptosis
- stability in human serum (plasma stability (human)): very high stability
